Reference: paper PMC7495481, “Sequence specificity analysis of the SETD2 protein lysine methyltransferase and discovery of a SETD2 super-substrate” (Communications Biology, 2020)
Values joined by “and” are separate entries in the source; they are usually repeats but may differ in a detail not shown here. Equal entries are not always repeated.

Molecular target: T1, SETD2 (Homo sapiens, UniProt Q9BYW2)
T1 construct: SETD2 catalytic SET domain (amino acids 1347–1711, UniProt No: Q9BYW2); made in house; host or cells: E. coli
T1 sequence (Q9BYW2 1347-1711): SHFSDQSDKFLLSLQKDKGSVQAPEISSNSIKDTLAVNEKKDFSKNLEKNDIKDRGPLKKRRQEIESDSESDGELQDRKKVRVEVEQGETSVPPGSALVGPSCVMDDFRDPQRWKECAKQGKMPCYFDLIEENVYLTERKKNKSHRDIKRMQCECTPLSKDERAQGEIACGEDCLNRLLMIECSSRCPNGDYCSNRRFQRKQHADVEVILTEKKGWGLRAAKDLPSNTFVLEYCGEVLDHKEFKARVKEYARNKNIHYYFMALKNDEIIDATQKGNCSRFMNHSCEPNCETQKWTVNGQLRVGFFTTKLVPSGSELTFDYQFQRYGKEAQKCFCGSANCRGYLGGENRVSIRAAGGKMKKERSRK
Assay: Peptide SPOT array methylation of H3K36 (29–43) variants, super-substrate design (Fig. 2a)
Format: biochemical
Conditions: SPOT array; 0.76 µM radioactive AdoMet, 3–6 µM SETD2, 60 min, pH 9; autoradiography
From the text: Based on these observations, we aimed to explore, if better substrates than H3K36 can be designed for SETD2. We synthesized peptide SPOT arrays including H3K36 (29–43) as a positive control and the H3K36A mutant as a negative control, in which up to 5 combined mutations were systematically introduced that converted the original H3K36 residues into residues that are more favored (Fig. 2a and Supplementary Table 1). This peptide array was methylated by SETD2 as described above and the methylation signal was captured by autoradiography.
Fig. 2 Design of an optimized SETD2 peptide substrate and analysis of its methylation. a Variants of the H3K36 (29–43) peptide containing up to five mutations (Supplementary Table 1) were synthesized on a cellulose membrane and methylated by SETD2. The signal of the transferred radioactive methyl groups was detected by autoradiography. Spots A1 and B15 contain the H3K36 sequence, A2 and B16 the H3K36A peptide. Two films with different exposure times are shown to visualize weaker methylated spots as well. b Comparison of the methylation of purified super-substrate (ssK36) and the H3K36 peptides. […] Methylation reactions were conducted using 20 µM peptide and 6 µM enzyme. The lower panels display autoradiography films after different exposure times allowing to compare the methylation levels of the different samples. For comparison, different dilutions of the methylated ssK36 were loaded as indicated. c Time course of ssK36 peptide methylation determined under single turnover conditions using 5 µM substrate and 6 µM enzyme. […] The gels with the radioactive ssK36 (5 µl loaded per well) and H3K36 peptides (20 µl loaded per well) were exposed together to the same x-ray film. […] An enlargement of the H3K36 data with adjusted y-axis scale is shown in Supplementary Fig. 3d.
(§1) Peptide arrays containing fifteen amino acid long peptides were synthesized using the SPOT synthesis method[48] with an Autospot peptide array synthesizer (Intavis AG, Köln, Germany). After synthesis, the obtained membranes were pre-incubated in methylation buffer (20 mM Tris/HCl pH 9, 0.01% Triton X-100, 10 mM DTT, 1.5 mM MgCl2) for 5 min on a shaker. Thereafter, the membranes were incubated in methylation buffer supplemented with 0.76 µM radioactively labeled AdoMet (PerkinElmer) and 3–6 µM SETD2 enzyme for 60 min on a shaker. After methylation, the membranes were washed 5 times for 5 min in wash buffer (100 mM NH4HCO3, 1% SDS) and incubated in amplify NAMP100V (GE Healthcare) for 5 min. This was followed by the exposure of the membranes to a hyperfilm^TM high performance autoradiography (GE Healthcare) film at −80 °C in the dark. The films were developed with an Optimax Typ TR machine after different exposue times. For quantification the signal intensities were measured with the Phoretix^TM software and analyzed with Microsoft Excel.

Sequence	peptide array methylation of H3K36 variants (in words)
APAFGGVKKPHRYRP [T32F]	stepwise improvement of activity with increasing number of mutations

Molecular target: T1, SETD2
Assay: Peptide SPOT array target lysine methylation of selected non-histone peptides (Fig. 3b)
Format: biochemical
Conditions: Exp1–Exp3, 3–6 µM SETD2, 0.76 µM AdoMet, 60 min, pH 9
From the text: However, we could identify 166 possible targets, which contain partial matches to the substrate specificity profile. The possible methylation of these 166 putative substrates was investigated at the peptide level. For this, fifteen amino acid long peptides containing the sequence of the non-histone targets surrounding the predicted target lysine were synthesized on a membrane. The H3K36 (29–43) peptide (spots A1, I9), the super-substrate peptide (spots A3, I11) and the corresponding lysine to alanine mutation peptides (spot A2, I10, and A4, I12) were included as positive and negative controls (Fig. 3a, Supplementary Fig. 4 and Supplementary Table 2). The methylation reactions and the detection of the methylation signals were performed in duplicates as described above. We observed that all of the investigated peptides were more weakly methylated than the super-substrate peptide. […] In the next step, 20 of the peptides were selected for further investigation based on the methylation intensity and the known functions of the proteins to confirm the methylation at the predicted target site. The peptides were synthesized on another membrane, now including the target lysine to alanine mutation control peptides in each case. The methylation reactions and the detection of the signal were conducted as described above (Fig. 3b, Supplementary Fig. 5 and Supplementary Table 3).
Fig. 3 Identification of non-histone substrates of SETD2. a Candidate non-histone peptide substrates were identified in the human proteome based on the SETD2 super-substrate specificity profile. The peptides were synthesized on a peptide SPOT array (Supplementary Table 2) and methylated by SETD2. As controls, the H3K36, H3K36A, ssK36 and ssK36A peptides were included on spots A1–A4 and I9–I12. The autoradiography image is an example of the obtained results. […] The quantification of the data of two experiments is shown in Supplementary Fig. 4. b Analysis of target lysine methylation of selected non-histone substrate peptides. Peptide SPOT arrays were synthesized containing the non-histone peptide substrates identified in panel A in addition to the lysine to alanine mutations presented on the array as every second spot (Supplementary Table 3). As controls, the H3K36, H3K36A, ssK36, and ssK36A mutant peptides were included on spot A1–A4 and C5–C8. The autoradiography image is an example of the obtained results. The quantification of the data of three experiments is shown in Supplementary Fig. 5. Peptides selected for furhter analysis are highlighted by blue circles. c Protein methylation of FBN1 and confirmation of the target lysine methylation. Both wild type (WT) and mutant (K666R) FBN1 were purified and equal amounts were methylated by SETD2 (2 µM). […] The size of FBN1 is indicated by an asterisk.
as §1

Sequence	Relative methylation signal, Average
AGARGYLATSLCVLG [DYSF K to A, target lysine to alanine control]	0.01828
AGARGYLKTSLCVLG [DYSF, Dysferlin peptide, target lysine 338]	0.2902
APRFGGVARPNRYRP [DS K to A, super-substrate K36A peptide, negative control]	0.1136 and 0.1005
ATFLGYFASGLKYKK [GELS K to A, target lysine to alanine control]	0.4943
ATFLGYFKSGLKYKK [GELS, Gelsolin peptide, target lysine 162]	0.5433
CRKLGGVAKSATFRS [TPD55 K to A, target lysine to alanine control]	0.6652
CRKLGGVKKSATFRS [TPD55, Tumor protein D55 peptide, target lysine 112]	0.7056
DDLYGAIAKLCCVQS [PIWL2 K to A, target lysine to alanine control]	0.3265
DDLYGAIKKLCCVQS [PIWL2, Piwi-like protein 2 peptide, target lysine 685]	0.4271
EMSIGAIAIALEISL [HMCN1 K to A, target lysine to alanine control]	0.09371
EMSIGAIKIALEISL [HMCN1, Hemicentin-1 peptide, target lysine 127]	0.3311
GAIIGFIAVGYKKLF [ATAT K to A, target lysine to alanine control]	0.4571
GAIIGFIKVGYKKLF [ATAT, Alpha-tubulin N-acetyltransferase 1 peptide, target lysine 98]	0.7722
GHPFGYLAASTALNC [INT6 K to A, target lysine to alanine control]	0.2106
GHPFGYLKASTALNC [INT6, Integrator complex subunit 6 peptide, target lysine 369]	0.398
KAPRGFLARVFKRKK [CENPW K to A, target lysine to alanine control]	0.3763
KAPRGFLKRVFKRKK [CENPW, Centromere protein W peptide, target lysine 23]	0.677
KDVIGAFAKVFACCS [O2T11 K to A, target lysine to alanine control]	0.2642
KDVIGAFKKVFACCS [O2T11, Olfactory receptor 2T11 peptide, target lysine 299]	0.408

Sequence	Relative methylation signal, Average
KRIYGGFASTAGKHP [HABP2 K to A, target lysine to alanine control]	0.2122
KRIYGGFKSTAGKHP [HABP2]	0.2413
LHNRGALALTTGKCV [SIA8D K to A, target lysine to alanine control]	0.2965
LHNRGALKLTTGKCV [SIA8D, CMP-N-acetylneuraminate-poly-alpha-2,8-sialyltransferase peptide, target lysine 350]	0.4366
LICIGALAKLCNHPC [RA54B K to A, target lysine to alanine control]	0.4423
LICIGALKKLCNHPC [RA54B, DNA repair and recombination protein RAD54B peptide, target lysine 589]	0.598
LWKIGFFARPLKKKM [ITA1 K to A, target lysine to alanine control]	0.403
LWKIGFFKRPLKKKM [ITA1, Integrin alpha-1 peptide, target lysine 1170]	0.4107
RRGIGYLALICFLIP [ANKAR K to A, target lysine to alanine control]	0.01267
RRGIGYLKLICFLIP [ANKAR, Ankyrin and armadillo repeat-containing protein peptide, target lysine 317]	0.4211
STCYGGIAKGVCVRP [FBN2 K to A, target lysine to alanine control]	0.3693
STCYGGIKKGVCVRP [FBN2, Fibrillin-2 peptide, target lysine 711]	0.6873
STCYGGYARGQCIKP [FBN1 K to A, target lysine to alanine control]	0.2279
TPPLGGYAVTAKCFG [HDAC9 K to A, target lysine to alanine control]	0.4627
TPPLGGYKVTAKCFG [HDAC9, Histone deacetylase 9 peptide, target lysine 927]	0.7696
YCLIGGVAMTRFICK [DLEC1 K to A, target lysine to alanine control]	0.4812
YCLIGGVKMTRFICK [DLEC1, Deleted in lung and esophageal cancer protein 1 peptide, target lysine 494]	0.8047
YGPFGYIANPYNIFD [CAC1G K to A, target lysine to alanine control]	0.03839
YGPFGYIKNPYNIFD [CAC1G, Voltage-dependent T-type calcium channel subunit alpha-1G peptide, target lysine 804]	0.9453
